Assay results taken from article PMC6437697 (Journal of Medicinal Chemistry, 2019).

Columns and labels:
Test in all cases: KINOMEscan
Type in all cases: binding
Conditions in all cases: read-out: % control activity remaining
KIT(D816V) = molecular target: T1, KIT(D816V) (Homo sapiens, UniProt P10721, D816V)
T1 construct: purchased Eurofins DiscoverX KINOMEscan

JNK2 = molecular target: T2, JNK2 (Homo sapiens, UniProt P45984)
T2 construct: purchased Eurofins DiscoverX KINOMEscan

MST1R = molecular target: T3, MST1R (Homo sapiens, UniProt Q04912)
T3 construct: purchased Eurofins DiscoverX KINOMEscan
T3 sequence (Q04912 25-1400): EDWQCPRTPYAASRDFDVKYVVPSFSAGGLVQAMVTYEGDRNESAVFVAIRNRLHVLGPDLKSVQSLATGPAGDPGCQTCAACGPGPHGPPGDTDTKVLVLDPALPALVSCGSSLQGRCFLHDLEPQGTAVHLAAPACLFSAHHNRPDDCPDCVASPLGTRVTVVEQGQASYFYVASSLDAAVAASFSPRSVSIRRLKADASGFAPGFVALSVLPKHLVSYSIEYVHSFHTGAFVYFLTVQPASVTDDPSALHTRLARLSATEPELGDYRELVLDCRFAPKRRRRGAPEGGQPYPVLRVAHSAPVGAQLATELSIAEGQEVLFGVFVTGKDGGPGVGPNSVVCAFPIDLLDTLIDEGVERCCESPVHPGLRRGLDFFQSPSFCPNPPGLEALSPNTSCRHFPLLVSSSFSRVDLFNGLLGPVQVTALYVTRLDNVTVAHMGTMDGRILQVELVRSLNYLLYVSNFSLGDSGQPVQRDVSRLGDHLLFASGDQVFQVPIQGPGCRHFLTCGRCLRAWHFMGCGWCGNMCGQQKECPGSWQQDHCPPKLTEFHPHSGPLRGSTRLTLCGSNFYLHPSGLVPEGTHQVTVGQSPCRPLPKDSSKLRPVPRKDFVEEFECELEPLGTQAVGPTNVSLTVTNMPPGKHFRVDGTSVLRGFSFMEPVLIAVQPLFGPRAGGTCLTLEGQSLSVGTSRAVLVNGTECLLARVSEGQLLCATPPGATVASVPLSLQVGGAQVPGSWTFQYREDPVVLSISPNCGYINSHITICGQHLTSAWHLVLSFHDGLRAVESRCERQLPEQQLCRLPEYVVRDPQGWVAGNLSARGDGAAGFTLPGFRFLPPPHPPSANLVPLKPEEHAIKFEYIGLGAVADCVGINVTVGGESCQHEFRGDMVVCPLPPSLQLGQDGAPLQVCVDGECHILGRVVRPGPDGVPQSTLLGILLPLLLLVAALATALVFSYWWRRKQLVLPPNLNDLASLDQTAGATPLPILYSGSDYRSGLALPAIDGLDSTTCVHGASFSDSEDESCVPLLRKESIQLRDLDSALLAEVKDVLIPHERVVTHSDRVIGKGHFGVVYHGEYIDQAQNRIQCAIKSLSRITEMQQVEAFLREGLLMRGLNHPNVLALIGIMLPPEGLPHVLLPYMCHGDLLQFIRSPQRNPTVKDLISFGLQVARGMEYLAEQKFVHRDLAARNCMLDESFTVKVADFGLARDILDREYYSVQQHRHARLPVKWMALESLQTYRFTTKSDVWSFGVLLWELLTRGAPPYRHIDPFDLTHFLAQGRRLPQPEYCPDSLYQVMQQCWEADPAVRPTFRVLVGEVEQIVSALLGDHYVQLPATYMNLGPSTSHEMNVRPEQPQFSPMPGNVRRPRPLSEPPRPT

MAP4K5 = molecular target: T4, MAP4K5 (Homo sapiens, UniProt Q9Y4K4)
T4 construct: purchased Eurofins DiscoverX KINOMEscan
T4 sequence (Q9Y4K4 whole entry): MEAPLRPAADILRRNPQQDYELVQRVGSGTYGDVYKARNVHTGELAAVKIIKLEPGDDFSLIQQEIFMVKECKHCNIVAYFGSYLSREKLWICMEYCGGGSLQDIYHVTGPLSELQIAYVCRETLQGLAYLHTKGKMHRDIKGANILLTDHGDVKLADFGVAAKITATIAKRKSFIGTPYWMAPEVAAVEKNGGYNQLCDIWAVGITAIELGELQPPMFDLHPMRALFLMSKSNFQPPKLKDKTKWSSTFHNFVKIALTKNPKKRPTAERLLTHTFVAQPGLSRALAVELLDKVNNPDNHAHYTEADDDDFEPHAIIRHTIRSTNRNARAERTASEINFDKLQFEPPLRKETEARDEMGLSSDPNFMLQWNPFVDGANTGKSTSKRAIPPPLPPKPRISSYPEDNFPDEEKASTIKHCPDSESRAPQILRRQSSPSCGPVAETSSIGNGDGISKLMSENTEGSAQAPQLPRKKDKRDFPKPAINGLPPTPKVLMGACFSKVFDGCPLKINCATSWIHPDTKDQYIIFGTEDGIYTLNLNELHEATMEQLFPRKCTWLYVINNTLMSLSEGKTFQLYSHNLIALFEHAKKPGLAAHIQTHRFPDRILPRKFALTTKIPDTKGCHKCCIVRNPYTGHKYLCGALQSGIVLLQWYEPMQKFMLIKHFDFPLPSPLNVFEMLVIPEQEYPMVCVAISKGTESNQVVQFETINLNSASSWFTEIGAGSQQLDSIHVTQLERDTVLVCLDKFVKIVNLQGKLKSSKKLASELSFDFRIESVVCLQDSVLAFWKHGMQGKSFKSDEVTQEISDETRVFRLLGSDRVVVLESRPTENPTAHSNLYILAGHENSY

MAK = molecular target: T5, MAK (Homo sapiens, UniProt P20794)
T5 construct: purchased Eurofins DiscoverX KINOMEscan
T5 sequence (P20794 1-623): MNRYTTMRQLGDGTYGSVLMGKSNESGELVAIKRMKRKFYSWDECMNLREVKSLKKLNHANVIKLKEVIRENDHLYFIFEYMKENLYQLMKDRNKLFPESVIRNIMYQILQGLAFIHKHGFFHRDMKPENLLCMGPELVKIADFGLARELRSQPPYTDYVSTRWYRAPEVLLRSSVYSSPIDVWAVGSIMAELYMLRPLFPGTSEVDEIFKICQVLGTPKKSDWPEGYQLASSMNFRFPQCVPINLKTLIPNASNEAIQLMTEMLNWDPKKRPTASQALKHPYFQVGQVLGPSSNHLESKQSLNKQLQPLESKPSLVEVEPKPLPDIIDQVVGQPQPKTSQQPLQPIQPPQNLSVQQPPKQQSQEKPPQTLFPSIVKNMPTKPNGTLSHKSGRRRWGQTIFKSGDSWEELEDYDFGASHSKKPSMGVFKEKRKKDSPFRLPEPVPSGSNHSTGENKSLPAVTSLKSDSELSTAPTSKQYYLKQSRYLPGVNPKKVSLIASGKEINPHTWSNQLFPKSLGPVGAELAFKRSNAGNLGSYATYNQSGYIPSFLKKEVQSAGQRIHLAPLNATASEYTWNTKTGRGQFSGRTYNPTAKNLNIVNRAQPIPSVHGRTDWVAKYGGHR

CAMK1D = molecular target: T6, CAMK1D (Homo sapiens, UniProt Q8IU85)
T6 construct: purchased Eurofins DiscoverX KINOMEscan

[1] = molecular target: T7, JAK1(JH1domain-catalytic) (Homo sapiens, UniProt P23458)
T7 construct: JAK1(JH1domain-catalytic); purchased Eurofins DiscoverX KINOMEscan

SGK = molecular target: T8, SGK (Homo sapiens, UniProt O00141)
T8 construct: purchased Eurofins DiscoverX KINOMEscan
T8 sequence (O00141 1-431): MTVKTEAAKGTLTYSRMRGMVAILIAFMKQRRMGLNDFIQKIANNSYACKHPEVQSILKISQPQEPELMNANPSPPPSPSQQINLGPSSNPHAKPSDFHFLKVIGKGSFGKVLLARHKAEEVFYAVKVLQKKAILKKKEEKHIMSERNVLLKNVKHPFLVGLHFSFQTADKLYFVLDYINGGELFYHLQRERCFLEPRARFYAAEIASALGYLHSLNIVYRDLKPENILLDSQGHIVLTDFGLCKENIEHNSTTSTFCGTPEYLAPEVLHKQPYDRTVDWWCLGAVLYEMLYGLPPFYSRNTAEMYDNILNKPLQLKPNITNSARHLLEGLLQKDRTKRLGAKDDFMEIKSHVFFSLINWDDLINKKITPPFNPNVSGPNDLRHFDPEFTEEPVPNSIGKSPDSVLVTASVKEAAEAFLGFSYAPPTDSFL

ALK(L1196M) = molecular target: T9, ALK(L1196M) (Homo sapiens, UniProt Q9UM73, L1196M)
T9 construct: purchased Eurofins DiscoverX KINOMEscan
T9 sequence (Q9UM73 19-1620 L1196M): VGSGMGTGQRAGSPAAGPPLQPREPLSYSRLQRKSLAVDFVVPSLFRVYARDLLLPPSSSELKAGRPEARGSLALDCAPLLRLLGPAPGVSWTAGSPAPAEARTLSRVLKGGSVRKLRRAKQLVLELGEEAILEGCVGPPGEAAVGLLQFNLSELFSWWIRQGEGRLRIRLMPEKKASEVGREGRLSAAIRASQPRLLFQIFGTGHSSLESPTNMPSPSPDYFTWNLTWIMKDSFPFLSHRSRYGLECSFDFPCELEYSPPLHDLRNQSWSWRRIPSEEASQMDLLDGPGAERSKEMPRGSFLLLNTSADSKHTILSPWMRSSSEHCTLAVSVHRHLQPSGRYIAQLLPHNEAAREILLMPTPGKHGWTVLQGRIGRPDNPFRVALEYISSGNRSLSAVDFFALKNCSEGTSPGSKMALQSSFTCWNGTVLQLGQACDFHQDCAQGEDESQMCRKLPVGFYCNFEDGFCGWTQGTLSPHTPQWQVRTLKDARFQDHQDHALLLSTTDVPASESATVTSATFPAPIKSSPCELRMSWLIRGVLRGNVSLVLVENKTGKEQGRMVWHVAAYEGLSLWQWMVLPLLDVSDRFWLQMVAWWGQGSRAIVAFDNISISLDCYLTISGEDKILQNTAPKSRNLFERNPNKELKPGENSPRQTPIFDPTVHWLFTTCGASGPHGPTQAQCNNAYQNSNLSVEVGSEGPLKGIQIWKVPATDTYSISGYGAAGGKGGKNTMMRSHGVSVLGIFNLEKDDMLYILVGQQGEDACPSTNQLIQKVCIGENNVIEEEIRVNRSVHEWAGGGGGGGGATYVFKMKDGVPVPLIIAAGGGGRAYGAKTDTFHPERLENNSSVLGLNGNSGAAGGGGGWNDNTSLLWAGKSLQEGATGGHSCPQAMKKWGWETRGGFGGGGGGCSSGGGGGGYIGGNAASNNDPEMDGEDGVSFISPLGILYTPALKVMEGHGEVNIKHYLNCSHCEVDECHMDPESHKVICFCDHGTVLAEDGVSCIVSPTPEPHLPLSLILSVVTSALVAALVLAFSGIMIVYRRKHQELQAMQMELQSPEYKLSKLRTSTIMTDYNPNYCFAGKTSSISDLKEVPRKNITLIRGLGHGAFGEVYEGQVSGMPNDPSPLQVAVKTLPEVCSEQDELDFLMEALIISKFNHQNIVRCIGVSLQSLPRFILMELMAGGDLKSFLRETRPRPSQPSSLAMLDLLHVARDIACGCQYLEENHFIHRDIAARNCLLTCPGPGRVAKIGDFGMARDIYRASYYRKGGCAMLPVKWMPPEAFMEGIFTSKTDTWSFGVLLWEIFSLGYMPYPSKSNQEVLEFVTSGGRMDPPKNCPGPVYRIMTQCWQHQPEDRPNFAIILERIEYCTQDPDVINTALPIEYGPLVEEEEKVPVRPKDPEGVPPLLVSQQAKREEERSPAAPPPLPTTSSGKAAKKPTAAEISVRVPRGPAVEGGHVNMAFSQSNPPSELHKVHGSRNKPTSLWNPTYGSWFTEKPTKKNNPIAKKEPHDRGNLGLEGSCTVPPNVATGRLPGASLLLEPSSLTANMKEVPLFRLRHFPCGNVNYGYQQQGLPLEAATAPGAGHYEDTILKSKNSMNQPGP

TIE1 = molecular target: T10, TIE1 (Homo sapiens, UniProt P35590)
T10 construct: purchased Eurofins DiscoverX KINOMEscan
T10 sequence (P35590 22-1138): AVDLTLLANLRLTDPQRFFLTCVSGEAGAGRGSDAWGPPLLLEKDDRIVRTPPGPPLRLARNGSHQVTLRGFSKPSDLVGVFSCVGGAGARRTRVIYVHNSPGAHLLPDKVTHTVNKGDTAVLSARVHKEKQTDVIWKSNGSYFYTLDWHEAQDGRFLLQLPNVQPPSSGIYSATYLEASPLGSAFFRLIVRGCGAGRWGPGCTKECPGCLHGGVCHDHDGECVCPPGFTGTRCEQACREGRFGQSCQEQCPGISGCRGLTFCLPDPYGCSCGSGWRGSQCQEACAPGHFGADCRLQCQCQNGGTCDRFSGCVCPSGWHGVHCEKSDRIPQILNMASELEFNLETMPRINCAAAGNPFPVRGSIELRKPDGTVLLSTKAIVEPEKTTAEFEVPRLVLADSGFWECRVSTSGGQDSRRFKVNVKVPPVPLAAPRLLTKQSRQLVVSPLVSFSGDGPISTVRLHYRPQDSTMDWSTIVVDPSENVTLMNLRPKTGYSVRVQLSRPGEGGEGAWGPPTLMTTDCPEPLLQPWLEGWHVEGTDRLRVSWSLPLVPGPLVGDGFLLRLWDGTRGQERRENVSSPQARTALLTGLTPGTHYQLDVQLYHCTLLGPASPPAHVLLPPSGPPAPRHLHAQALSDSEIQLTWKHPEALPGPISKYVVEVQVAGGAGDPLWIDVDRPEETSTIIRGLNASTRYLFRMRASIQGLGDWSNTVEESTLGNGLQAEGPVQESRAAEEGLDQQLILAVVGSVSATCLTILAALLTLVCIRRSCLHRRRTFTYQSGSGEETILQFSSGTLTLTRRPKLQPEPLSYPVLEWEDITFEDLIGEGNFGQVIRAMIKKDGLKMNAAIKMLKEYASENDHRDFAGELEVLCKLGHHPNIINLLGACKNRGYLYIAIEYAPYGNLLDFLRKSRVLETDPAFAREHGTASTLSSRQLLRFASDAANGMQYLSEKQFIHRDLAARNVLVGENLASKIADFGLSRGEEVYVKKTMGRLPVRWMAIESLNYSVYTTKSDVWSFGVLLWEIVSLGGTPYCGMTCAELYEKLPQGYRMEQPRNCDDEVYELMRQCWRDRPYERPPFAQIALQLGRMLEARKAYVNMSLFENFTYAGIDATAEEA

ROCK1 = molecular target: T11, ROCK1 (Homo sapiens, UniProt Q13464)
T11 construct: purchased Eurofins DiscoverX KINOMEscan

EPHA8 = molecular target: T12, EPHA8 (Homo sapiens, UniProt P29322)
T12 construct: purchased Eurofins DiscoverX KINOMEscan
T12 sequence (P29322 28-1005): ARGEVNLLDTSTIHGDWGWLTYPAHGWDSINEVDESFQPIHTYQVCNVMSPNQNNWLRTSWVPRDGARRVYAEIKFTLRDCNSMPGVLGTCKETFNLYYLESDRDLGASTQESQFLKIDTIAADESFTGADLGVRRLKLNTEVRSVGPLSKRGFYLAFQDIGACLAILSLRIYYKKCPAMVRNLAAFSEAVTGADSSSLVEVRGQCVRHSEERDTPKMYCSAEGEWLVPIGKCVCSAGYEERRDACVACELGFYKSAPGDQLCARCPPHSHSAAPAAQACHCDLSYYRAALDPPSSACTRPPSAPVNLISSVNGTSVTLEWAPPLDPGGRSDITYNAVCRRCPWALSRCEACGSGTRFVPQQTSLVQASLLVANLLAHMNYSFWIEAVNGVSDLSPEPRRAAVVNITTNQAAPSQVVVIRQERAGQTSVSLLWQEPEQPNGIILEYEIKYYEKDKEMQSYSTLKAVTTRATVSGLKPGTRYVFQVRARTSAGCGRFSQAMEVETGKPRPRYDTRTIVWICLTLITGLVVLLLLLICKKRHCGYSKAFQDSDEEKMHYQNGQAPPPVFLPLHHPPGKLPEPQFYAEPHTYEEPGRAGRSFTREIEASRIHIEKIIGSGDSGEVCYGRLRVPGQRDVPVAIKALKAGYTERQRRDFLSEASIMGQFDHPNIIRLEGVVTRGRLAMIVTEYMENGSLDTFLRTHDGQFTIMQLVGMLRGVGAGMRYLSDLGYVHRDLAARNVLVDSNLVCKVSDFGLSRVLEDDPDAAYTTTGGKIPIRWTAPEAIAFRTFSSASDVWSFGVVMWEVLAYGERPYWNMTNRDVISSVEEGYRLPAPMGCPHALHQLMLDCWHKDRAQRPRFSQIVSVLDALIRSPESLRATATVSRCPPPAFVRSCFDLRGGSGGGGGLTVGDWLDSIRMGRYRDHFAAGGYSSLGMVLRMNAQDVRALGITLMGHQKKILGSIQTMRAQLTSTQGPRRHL

TRKA = molecular target: T13, TRKA (Homo sapiens, UniProt P04629)
T13 construct: purchased Eurofins DiscoverX KINOMEscan

Structure (SMILES)	remaining binding at 1 µM (KIT(D816V))	remaining binding at 1 µM (JNK2)	remaining binding at 1 µM (MST1R)	remaining binding at 1 µM (MAP4K5)	remaining binding at 1 µM (MAK)	remaining binding at 1 µM (CAMK1D)	remaining binding at 1 µM [1]	remaining binding at 1 µM (SGK)	remaining binding at 1 µM (ALK(L1196M))	remaining binding at 1 µM (TIE1)	remaining binding at 1 µM (ROCK1)	remaining binding at 1 µM (EPHA8)	remaining binding at 1 µM (TRKA)
Clc1cc(NCC2CC2)c2ncc(-c3ccc4[nH]ncc4c3)n2n1 [compound 2, 6-Chloro-N-(cyclopropylmethyl)-3-(1H-indazol-5-yl)imidazo[1,2-b]pyridazin-8-amine]	78%	91%	99%	98%	82%	100%	100%	91%	77%	99%	36%	90%	89%
O=C(CN1CCOCC1)N[C@H]1CC[C@H](Nc2cc(Cl)nn3c(-c4ccc5[nH]ncc5c4)cnc23)CC1 [compound 26]	29%	80%	64%	87%	61%	71%	100%	94%	90%	67%	22%	90%	19%
CN1CCC(CNc2cc(Cl)nn3c(-c4cc5nc(Nc6ccccc6)[nH]c5cc4F)cnc23)CC1 [compound 31, 6-Chloro-3-(6-fluoro-2-(phenylamino)-1H-benzo[d]imidazol-5-yl)-N-((1-methylpiperidin-4-yl)methyl)imidazo[1,2-b]pyridazin-8-amine]	81%	75%	77%	100%	69%	85%	100%	76%	94%	84%	76%	92%	96%
